The text below walks through data of PubChem BioAssay (NCI).

Experiment in all cases: NCI tumour cell line growth inhibition, 48 h
Experiment [1] has as its system BT-549 breast.
Experiment [2] relates to HCC-2998 colon.
For experiment [3], the system named is HCT-116 colon.
Experiment [4] concerns HT29 colon.
Experiment [5] deals with LOX IMVI melanoma.
Experiment [6] relates to NCI-H460 lung.
Experiment [7] relates to OVCAR-3 ovarian.
The subject of experiment [8] is RXF 393 renal.
Experiment [9] deals with SF-268 CNS.
Experiment [10] deals with TK-10 renal.

Each structure is given as a SMILES string. Values joined by “and” are separate entries in the source; they are usually repeats but may differ in a detail not shown here. Identical values can stand only once.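 Step 1: Grow cells in 96-well plates. Step 2: Expose to compound for 48 hours at 5 concentrations. Step 3: Interpolate endpoints linearly; if unreached, use highest concentration. At the GI50, growth is halved. The concentration for full growth arrest is given as TGI.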 Where only a bound is given, the exact number is not on record here.

As to `COc1ccc(-c2cc(-c3ccc(Cl)cc3)nc(SCCCCCCC(=O)NO)n2)cc1`, the GI50 in [1] was 2.16 µM; in experiment [2], 2.01 µM; in experiment [3] it was 1.35 µM; in [4], 1.71 µM; in experiment [5], 1.22 µM; in experiment [6], 1.29 µM. The GI50 was 1.49 µM in experiment [7], 1.27 µM in [8], 1.79 µM in experiment [9] and 2.12 µM in experiment [10]. Also, the TGI in experiment [1] amounted to 14 µM; in experiment [2], 8.37 µM; in experiment [3], 7.16 µM; in [4], 16.6 µM; in experiment [5], 3.05 µM; in [6], 8.9 µM. In addition, the TGI in experiment [7] is 6.85 µM; in [8], 3.69 µM; in experiment [9], 6.54 µM; in [10], over 50 µM.

For `CC(C)Cc1ccc(C(C)/C=C2\CCC(CN3CCCCC3)C2=O)cc1` (stereo unspecified), the TGI in experiment [1] stood at 34.4 µM; in [2] it was 17.7 µM; in experiment [3] it was 12.7 µM; in experiment [4], 15.9 µM; in experiment [5], 3.99 µM; in experiment [6], 66.1 µM. The TGI in experiment [7] was determined as 11 µM; in experiment [8], 5.73 µM; in experiment [9], 8.29 µM; in experiment [10] it was 8.95 µM.

Turning to `NC(N)=NC(N)=Nc1ccc(S(N)(=O)=O)cc1`, the TGI in experiment [1], in [2], in experiment [3], in [4], in [5] and in [6] was over 100 µM throughout. The TGI in [7], in [8], in [9] and in experiment [10] was over 100 µM in each case.

Turning to `C[C@H](C(O)CC(=O)C(C)(C)O)[C@H]1CC[C@@]2(C)[C@@H]3CC[C@H]4C(C)(C)[C@@H](OC5OC(COC6OC(CO)C(O)C(O)C6O)C(O)C(O)C5O)CC[C@]4(C)C3=CC[C@]12C` (stereo partly specified), the TGI in experiment [1], in [2], in [3], in [4], in [5] and in [6] was over 100 µM throughout. Further, the TGI in [7], in experiment [8], in experiment [9] and in experiment [10] was over 100 µM in each case.

As to `COc1cc2c(cc1OC)-c1ncc3cc(OC)c(OC)c(OC)c3c1C2`, the GI50 is 2.94 µM in experiment [1]; 26 µM in experiment [2]; 31.8 µM in experiment [3]; 16.8 µM in [5]; 31.6 µM in experiment [6]; 15.9 µM in [7]. Besides, the GI50 in experiment [8] was 23.2 µM; in [10], 27.7 µM. The TGI in [1] is 7.56 µM; in experiment [2], 95.8 µM; in experiment [3], over 100 µM; in experiment [5], 35.8 µM; in [6] it was over 100 µM; in experiment [7] it was 43.9 µM. Also, the TGI in experiment [8] was 85.8 µM; in experiment [10], over 100 µM.

Turning to `CN(C)C1C(=O)C(C(N)=O)=C(O)C2(O)C(=O)C3=C(O)c4c(O)cccc4C(C)(O)C3CC12` (stereo unspecified), the TGI in experiment [1] is over 100 µM; in experiment [2], over 100 µM; in experiment [3] it was 39.2 µM and > 100 µM; in [4], 67.9 µM and > 100 µM; in experiment [5] it was 76.5 µM and > 100 µM; in experiment [6], over 100 µM. The TGI is over 100 µM in [7]; 87.5 µM and > 100 µM in experiment [8]; over 100 µM in [10]. The GI50 was > 100 µM and 42.7 µM in [2]; 23.7 µM and > 100 µM in experiment [3]; 27.2 µM and > 100 µM in experiment [4]; 44.5 µM and > 100 µM in experiment [7].

As for `O=C(Nc1ccc(N2CCNCC2)cn1)c1[nH]ncc1Nc1ncnc2sccc12`, the GI50 was 1.83 µM in experiment [1]; 12.7 µM in [2]; 1.15 µM in experiment [3]; 1.91 µM in experiment [4]; 1.73 µM in experiment [6]; 2.02 µM in experiment [7]. For the same compound, the GI50 is 3.32 µM in experiment [8] and 3.62 µM in [10]. Moreover, the TGI was found to be 4.13 µM in experiment [1]; 32.1 µM in [2]; 3.09 µM in experiment [3]; 3.97 µM in [4]; 3.57 µM in experiment [6]; 4.38 µM in experiment [7]. In addition, the TGI in [8] stood at 18.8 µM; in experiment [10], 14.8 µM.

In the case of `COc1ccc(C(=O)c2cc(C)c(OC)c(C)c2)c(OC)c1N(C(=O)CCl)C(=O)CCl`, the GI50 is 0.0554 µM in experiment [1]; 0.0803 µM in experiment [2]; 0.0638 µM in experiment [3]; 0.307 µM in experiment [4]; 0.0731 µM in experiment [5]; 0.0386 µM in [6]. In addition, the results for the GI50 in [7], in [9] and in experiment [10] were 0.0398 µM, 0.548 µM and 13.4 µM, respectively. Moreover, the TGI was determined as 1.43 µM in experiment [1]; 7.35 µM in [2]; 10.8 µM in experiment [3]; 22.5 µM in experiment [4]; 2.66 µM in experiment [5]; 1.3 µM in experiment [6]. For the same compound, the TGI in [7] was 1.58 µM; in experiment [9] it was 46 µM; in [10], over 100 µM.

Regarding `C#CCN(Cc1nc2cc(C(F)(F)F)ccc2nc1-c1ccccc1)c1ccc(F)cc1`, the GI50 in [1] was 48 µM; in experiment [3] it was 20.8 µM; in experiment [4], 34.9 µM; in [5], 30.5 µM; in experiment [6], 27.8 µM; in [7] it was 29.8 µM. Also, the GI50 was 41 µM in [8], 37.9 µM in experiment [9] and 19.2 µM in [10]. Moreover, the TGI in experiment [1] was over 100 µM; in experiment [3] it was over 100 µM; in [4], over 100 µM; in experiment [5] it was 97.8 µM; in [6] it was over 100 µM; in experiment [7], over 100 µM. Further, the TGI in experiment [8] was over 100 µM; in [9] it was over 100 µM; in experiment [10], 59 µM.

Consider `CSC1SCC2C(=O)N(C)C(C(C)C)C(=O)OCC(NC(=O)c3cnc4ccccc4n3)C(=O)NC(C)C(=O)N(C)C1C(=O)N(C)C(C(C)C)C(=O)OCC(NC(=O)c1cnc3ccccc3n1)C(=O)NC(C)C(=O)N2C` (stereo unspecified), for which the GI50 in experiment [1], in [2], in experiment [4], in experiment [5], in experiment [6] and in experiment [7] was under 0.001 µM throughout. Also, the GI50 is under 0.001 µM in experiment [8]; under 0.001 µM in experiment [9]; < 0.001 µM and 0.0075 µM in experiment [10]. The compound also yielded a TGI in [1] of 0.0158 µM.
